Values quoted from earlier work in US6383817B2, “Cadmium is a risk factor for human pancreatic cancer” (Wake Forest University, priority 1999, dated 2002).
Read-outs that look alike come from different tables or passages of the source.

Tests used:
mice = settings: injection of 4 mg/kg, relative to saline
Wistar rats = settings: injection, vs. 2.2% control
[1] = tested on: Louisiana red swamp crayfish (Procambarus clarkii); settings: day 14; crayfish fed plants grown for 7 days in 0.00224 ppb cadmium
rats = settings: repeated injections to rats
[2] = tested on: pancreatic metallothionein; settings: rats
[3] = not given; remark: listed apart in the source

Row | Structure (SMILES) | increase in the incorporation of [3H] thymidine in the pancreas (mice) [fold] | incidence of pancreatic islet cell tumors (Wistar rats) [%] | Accumulation of cadmium in hepatopancreata [1] | rats with hepatocytic foci in the pancreata (rats) | increase in pancreatic metallothionein ([2]; injection of 4 mg/kg) [fold] | increase in pancreatic metallothionein ([2]; injection of 8 mg/kg) [fold] | SMR (x100), pancreatic cancer deaths (Elinder et al. (1985), male cadmium-nickel battery workers, Oskarshamn, Sweden) | SMR (x100), pancreatic cancer deaths (Järup et al. (1998), battery workers, Kalmar, Sweden, females) | SMR (x100), pancreatic cancer deaths (Järup et al. (1998), battery workers, Kalmar, Sweden, males) | SMR (x100), pancreatic cancer deaths (Sorahan et al. (1995), male copper cadmium alloy workers, England and Wales) | correlation (r) between estimated dietary intake of cadmium and pancreatic cancer mortality ([3]; men) | correlation (r) between estimated dietary intake of cadmium and pancreatic cancer mortality ([3]; women)
1 | [Cl][Cd][Cl] [cadmium chloride] | 2.5 | 8.5 | – | – | – | – | – | – | – | – | – | –
2 | [Cd] [cadmium] | – | – | 4,657.6 ppb | more than 93% | 9.8 | 17.9 | 130 | 220 | 148 | 218 | 0.48 | 0.25
